Measurements: paper PMC6018403 (Frontiers in Pharmacology, 2018)
Read-outs that look alike come from different tables or passages of the source. Blank lines part the entries; values can stand above or below the molecule they belong to.

Experiment: Multi-component pharmacokinetic study of GQD, GQD-GC and single herb extracts in rats (plasma, LC/MS/MS)
Format: in vivo, Sprague-Dawley rats
Protocol: Male Sprague-Dawley rats (220–250 g) were used for PK study, and the details were described in Supplemental Data. All procedures were in accordance with the National Institutes of Health Guide for the Care and Use of Laboratory Animals.
For PK study of GQD and its component herbs, rats were randomly divided into six groups (n = 10 for each group) before oral administration.
All blood samples were immediately centrifuged at 6,000 rpm (4°C) for 20 min to obtain plasma. The plasma samples were stored at −80°C.
A Finnigan TSQ Quantum triple quadrupole mass spectrometer was connected to a Surveyor HPLC via ESI interface (ThermoFisher). High purity nitrogen was used as the sheath and auxiliary gas; Ultra-high purity argon was used as the collision gas (1.5 mTorr). Q1 and Q3 quadrupoles were set at unit resolution. […] The column temperature was 40°C. The mobile phase consisted of acetonitrile containing 2% (v/v) methanol (A) and water containing 0.1% (v/v) formic acid (B). […] An aliquot of 5 μL was injected for analysis. UV spectra were obtained by scanning from 200 to 400 nm. The mass spectrometer was operated in the (+)-ESI mode. The optimized parameters were as follows: sheath gas (N2), 50 arb; auxiliary gas (N2), 5 arb; spray voltage, 4.0 kV; capillary temperature, 330°C; collision energy, see Table S1. Analytes were detected in the selected reaction monitoring (SRM) mode. Data were processed by Xcalibur 2.0.7 software (ThermoFisher).
LC/MS/MS calibration and quantitation data were processed with Xcalibur 2.0.7 software (ThermoFisher). The maximal plasma concentrations (Cmax) and their time of occurrence (Tmax) were obtained directly from the measured data. Other pharmacokinetic parameters were calculated by non-compartment or compartment models using WinNonlin® software (v6.1, Pharsight). Unless otherwise stated, results were expressed as the mean ± SD. Statistical significance in differences of the means was determined by Student's t–test, with a significance level of P < 0.05.
Herbal materials and extracts.
The four component herbs, Puerariae Lobatae Radix (Ge-Gen, GG), Scutellariae Radix (Huang-Qin, HQ), Coptidis Rhizoma (Huang-Lian, HL), and Glycyrrhizae Radix et Rhizoma Praeparata cum Melle (Gan-Cao, GC) were purchased from Tianheng Pharmacy. GQD was prepared by decocting the four component herbs […]
pre-extraction of Ge-Gen using 200 mL of water for 0.5 h. The decoctions were combined, filtered, and concentrated in vacuum at 50 °C. GQD-GC was prepared using the same procedure, except that Gan-Cao was removed from the formula. Final concentration of the GQD-GC extract was equivalent to 1.0 g of the crude drugs per mL. For single herb extracts, the herbs were decocted in 8-fold volume of water for […]
Final concentrations of the extracts were 1.0 g/mL for Ge-Gen, and 0.5 g/mL for Huang-Qin, Huang-Lian and […]
For pharmacokinetic study, Male Sprague-Dawley rats (220-250 g) were obtained from the Laboratory Animal Center of Peking University Health Science Center. The […]
The rats had free access to tap water and soy-free custom diet (Ke’ao Xieli Co.). All procedures were in accordance with the National Institutes of Health Guide for the Care and Use of Laboratory Animals […]
Experimental details for the PK study
1. Preparation of internal standard solution, calibration standard solutions, and quality control solutions […]
internal standard solution. Reference standard compounds were dissolved in the internal standard solution to prepare individual stock solutions (1.0 mg/mL). These […]
each compound. The standard solution was then serially diluted to obtain calibration […]
Quality control stock solutions were prepared at three concentration levels as high QC (HQC), middle QC (MQC), and low QC (LQC), based on linear ranges of the analytes.
2.1. Sample preparation for pharmacokinetic study
The calibration standard and quality control solutions for pharmacokinetic study were […]

[1] = male, Sprague-Dawley, rat, plasma, po, 9.45 g/kg, GG (Ge-Gen) group: rats, oral extract 9.45 g/kg, plasma, read-out: AUClast
[2] = male, Sprague-Dawley, rat, plasma, po, 16.5 g/kg, GQD-GC group (GQD without Gan-Cao): rats, oral 16.5 g/kg, plasma, read-out: AUClast
[3] = male, Sprague-Dawley, rat, plasma, po, 18.9 g/kg, GQD group: rats, oral GQD extract 18.9 g/kg, plasma, read-out: AUClast
[4] = male, Sprague-Dawley, rat, GG (Ge-Gen) group: rats, oral extract 9.45 g/kg, plasma, read-out: Cmax
[5] = male, Sprague-Dawley, rat, GG (Ge-Gen) group: rats, oral extract 9.45 g/kg, plasma, read-out: T1/2 (converted)
[6] = male, Sprague-Dawley, rat, GG (Ge-Gen) group: rats, oral extract 9.45 g/kg, plasma, read-out: Tmax
[7] = male, Sprague-Dawley, rat, GQD group: rats, oral GQD extract 18.9 g/kg, plasma, read-out: Cmax
[8] = male, Sprague-Dawley, rat, GQD group: rats, oral GQD extract 18.9 g/kg, plasma, read-out: T1/2 (converted)
[9] = male, Sprague-Dawley, rat, GQD group: rats, oral GQD extract 18.9 g/kg, plasma, read-out: Tmax
[10] = male, Sprague-Dawley, rat, GQD-GC group (GQD without Gan-Cao): rats, oral 16.5 g/kg, plasma, read-out: Cmax
[11] = male, Sprague-Dawley, rat, GQD-GC group (GQD without Gan-Cao): rats, oral 16.5 g/kg, plasma, read-out: T1/2 (converted)
[12] = male, Sprague-Dawley, rat, GQD-GC group (GQD without Gan-Cao): rats, oral 16.5 g/kg, plasma, read-out: Tmax
[13] = male, Sprague-Dawley, rat, in vivo, po, 3.54 g/kg
[14] = male, Sprague-Dawley, rat, in vivo, po, 16.5 g/kg
[15] = male, Sprague-Dawley, rat, in vivo, po, 18.9 g/kg

Structure (SMILES): COc1cc(-c2coc3c(C4OC(COC5OCC(O)(CO)C5O)C(O)C(O)C4O)c(O)ccc3c2=O)ccc1O (centres unmarked) [Compound 37, 3'-methoxymirificin]
AUC(0-t) (male, Sprague-Dawley, rat, in vivo, po, 9.45 g/kg, GG (Ge-Gen) group: rats, oral extract 9.45 g/kg, plasma, read-out: AUClast): 47.4 ± 28.7 ng·h/mL
AUC(0-t) (male, Sprague-Dawley, rat, in vivo, po, 16.5 g/kg, GQD-GC group (GQD without Gan-Cao): rats, oral 16.5 g/kg, plasma, read-out: AUClast): 42.5 ± 11.3 ng·h/mL
AUC(0-t) (male, Sprague-Dawley, rat, in vivo, po, 18.9 g/kg, GQD group: rats, oral GQD extract 18.9 g/kg, plasma, read-out: AUClast): 86.3 ± 23.9 ng·h/mL
Cmax (male, Sprague-Dawley, rat, in vivo, GG (Ge-Gen) group: rats, oral extract 9.45 g/kg, plasma, read-out: Cmax): 11.6 ± 0.56 ng/mL
half-life (male, Sprague-Dawley, rat, in vivo, GG (Ge-Gen) group: rats, oral extract 9.45 g/kg, plasma, read-out: T1/2 (converted)): 82.2 ± 11.4 min
Tmax (male, Sprague-Dawley, rat, in vivo, GG (Ge-Gen) group: rats, oral extract 9.45 g/kg, plasma, read-out: Tmax): 21.6 ± 44.4 min
Cmax (male, Sprague-Dawley, rat, in vivo, GQD group: rats, oral GQD extract 18.9 g/kg, plasma, read-out: Cmax): 9.94 ± 3.68 ng/mL
half-life (male, Sprague-Dawley, rat, in vivo, GQD group: rats, oral GQD extract 18.9 g/kg, plasma, read-out: T1/2 (converted)): 62.4 ± 2.4 min
Tmax (male, Sprague-Dawley, rat, in vivo, GQD group: rats, oral GQD extract 18.9 g/kg, plasma, read-out: Tmax): 21.6 ± 1.8 min
Cmax (male, Sprague-Dawley, rat, in vivo, GQD-GC group (GQD without Gan-Cao): rats, oral 16.5 g/kg, plasma, read-out: Cmax): 7.22 ± 3.27 ng/mL
half-life (male, Sprague-Dawley, rat, in vivo, GQD-GC group (GQD without Gan-Cao): rats, oral 16.5 g/kg, plasma, read-out: T1/2 (converted)): 97.2 ± 23.4 min
Tmax (male, Sprague-Dawley, rat, in vivo, GQD-GC group (GQD without Gan-Cao): rats, oral 16.5 g/kg, plasma, read-out: Tmax): 21 ± 25.2 min

AUC(0-t) [1]: 67.3 ± 28.7 ng·h/mL
AUC(0-t) [2]: 18.9 ± 4.09 ng·h/mL
AUC(0-t) [3]: 37.5 ± 21.1 ng·h/mL
Cmax [4]: 14.9 ± 9.76 ng/mL
half-life [5]: 559 ± 131 min
Tmax [6]: 31.2 ± 66.6 min
Cmax [7]: 10.9 ± 9.4 ng/mL
half-life [8]: 479 ± 173 min
Tmax [9]: 31.2 ± 15.6 min
Cmax [10]: 11.1 ± 4.41 ng/mL
half-life [11]: 387 ± 310 min
Tmax [12]: 31.8 ± 72 min
Structure (SMILES): COc1ccc(C2=CC(=O)OC2Cc2ccc(O)cc2)c(OC2OC(CO)C(O)C(O)C2O)c1 [Compound 41, (4S)-puerol B 2″-O-glucopyranoside]

increase of AUClast in GQD group compared with the Huang-Lian group (male, Sprague-Dawley, rat, in vivo, po): 32.7%
Cmax [13]: 5.96 ± 1.35 ng/mL
Tmax [13]: 15 ± 75 min
half-life [13]: 195 ± 146 min
AUC(0-t) (male, Sprague-Dawley, rat, in vivo, po, 3.54 g/kg, AUClast): 51.5 ± 27.8 ng·h/mL
Cmax [14]: 4.75 ± 10.2 ng/mL
Tmax [14]: 15.6 ± 9 min
half-life [14]: 182 ± 142 min
AUC(0-t) (male, Sprague-Dawley, rat, in vivo, po, 16.5 g/kg, AUClast): 43.4 ± 17 ng·h/mL
Cmax [15]: 17.1 ± 2.98 ng/mL
Tmax [15]: 10.2 ± 1.8 min
half-life [15]: 97.2 ± 109 min
AUC(0-t) (male, Sprague-Dawley, rat, in vivo, po, 18.9 g/kg, AUClast): 68.3 ± 39.2 ng·h/mL
Structure (SMILES): COc1cc2c(cc1OC)-c1cc3ccc(OC)c(OC)c3c[n+]1CC2 [Compound 25, palmatine]

AUC(0-t) [1]: 51.7 ± 24.2 ng·h/mL
AUC(0-t) [2]: 88.2 ± 24.3 ng·h/mL
AUC(0-t) [3]: 72.6 ± 15.2 ng·h/mL
Cmax [4]: 3.09 ± 1.99 ng/mL
half-life [5]: 413 ± 314 min
Tmax [6]: 60 ± 139 min
Cmax [7]: 4.97 ± 1.11 ng/mL
half-life [8]: 416 ± 43.8 min
Tmax [9]: 62.4 ± 46.8 min
Cmax [10]: 8.08 ± 3.19 ng/mL
half-life [11]: 490 ± 146 min
Tmax [12]: 62.4 ± 45 min
bioavailability in the GQD group compared with the Ge-Gen group (rats, oral): higher
Structure (SMILES): O=c1c(-c2ccc(O)cc2)coc2cc(O[C@@H]3O[C@H](CO)[C@@H](O)[C@H](O)[C@H]3O)cc(O)c12 [Compound 4, genistin]
